Assay results: ChEMBL document CHEMBL5465560, “Selectivity Literature for EUbOPEN Chemogenomic Library” (2024)
pKd: −log10 of the molar value.

Tests used:
[1] = target: Bromodomain-containing protein 2 (Homo sapiens) (UniProt P25440); test: Selectivity interaction (Human bromodomain panel (DSF assay)) EUB0000233b BRD2
[2] = target: Serine/threonine-protein kinase NLK (Homo sapiens, UniProt Q9UBE8); test: Selectivity interaction (Competition-binding assay (DiscoverX)) EUB0000229b NLK
[3] = target: Serine/threonine-protein kinase Nek6 (Homo sapiens) (UniProt Q9HC98); test: Selectivity interaction (KinomeScan (DiscoverX)) EUB0000229b NEK6; details: at 10 µM
[4] = target: Receptor tyrosine-protein kinase erbB-3 (Homo sapiens) (UniProt P21860); test: Selectivity interaction (KinomeScan (DiscoverX)) EUB0001079a ERBB3; details: at 1 µM
[5] = target: T1, Tyrosine-protein kinase ZAP-70 (Homo sapiens) (UniProt P43403); test: Selectivity interaction (KinomeScan (DiscoverX)) EUB0001079a ZAP70; details: at 1 µM
T1 sequence (whole entry): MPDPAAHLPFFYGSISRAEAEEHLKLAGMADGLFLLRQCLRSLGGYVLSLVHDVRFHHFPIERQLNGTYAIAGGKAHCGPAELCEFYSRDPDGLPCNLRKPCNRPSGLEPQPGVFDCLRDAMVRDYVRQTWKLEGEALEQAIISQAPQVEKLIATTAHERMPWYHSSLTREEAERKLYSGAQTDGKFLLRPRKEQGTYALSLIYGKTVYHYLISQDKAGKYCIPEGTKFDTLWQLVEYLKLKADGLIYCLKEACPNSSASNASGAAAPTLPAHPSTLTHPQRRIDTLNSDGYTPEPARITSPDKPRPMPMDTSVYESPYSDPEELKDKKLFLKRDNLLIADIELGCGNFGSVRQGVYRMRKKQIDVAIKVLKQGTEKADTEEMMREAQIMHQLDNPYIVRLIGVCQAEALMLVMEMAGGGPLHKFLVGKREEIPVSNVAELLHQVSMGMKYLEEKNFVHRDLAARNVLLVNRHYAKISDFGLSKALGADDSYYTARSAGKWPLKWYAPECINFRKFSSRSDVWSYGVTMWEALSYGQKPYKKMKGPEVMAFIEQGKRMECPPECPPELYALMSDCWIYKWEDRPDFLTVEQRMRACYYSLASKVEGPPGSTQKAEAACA

[6] = target: T2, Membrane-associated tyrosine- and threonine-specific cdc2-inhibitory kinase (Homo sapiens) (UniProt Q99640); test: Selectivity interaction (ProQinase) EUB0000171b PKMYT1
T2 sequence (whole entry): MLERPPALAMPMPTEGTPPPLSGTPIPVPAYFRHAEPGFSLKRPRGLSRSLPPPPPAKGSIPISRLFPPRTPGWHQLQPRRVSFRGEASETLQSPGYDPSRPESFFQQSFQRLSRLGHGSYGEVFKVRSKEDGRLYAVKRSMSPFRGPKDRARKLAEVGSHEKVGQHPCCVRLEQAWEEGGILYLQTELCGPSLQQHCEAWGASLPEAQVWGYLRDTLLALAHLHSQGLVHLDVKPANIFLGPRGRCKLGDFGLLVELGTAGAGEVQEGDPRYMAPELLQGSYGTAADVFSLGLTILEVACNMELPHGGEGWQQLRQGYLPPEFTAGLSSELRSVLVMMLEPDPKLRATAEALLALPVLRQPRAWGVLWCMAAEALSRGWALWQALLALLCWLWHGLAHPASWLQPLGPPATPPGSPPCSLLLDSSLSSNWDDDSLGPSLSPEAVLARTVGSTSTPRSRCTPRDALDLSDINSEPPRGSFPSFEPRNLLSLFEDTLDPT

[7] = target: Serine/threonine-protein kinase PAK 3 (Homo sapiens) (UniProt O75914); test: Selectivity interaction (KinaseProfiler screening (Millipore)) EUB0000601a PAK3; details: at 3 µM
[8] = target: Serine/threonine-protein kinase PRP4 homolog (Homo sapiens) (UniProt Q13523); test: Selectivity interaction (KinomeScan (DiscoverX)) EUB0000618a PRPF4; details: at 10 µM
[9] = target: 5'-AMP-activated protein kinase catalytic subunit alpha-1 (Homo sapiens, UniProt Q13131); test: Selectivity interaction (ActivX KiNativ screen (kinase selectivity in THP-1 cell lysates)) EUB0000639a PRKAA1; format: subcellular; details: lysate, at 5 µM
[10] = target: Platelet-derived growth factor receptor beta (Homo sapiens, UniProt P09619); test: Selectivity interaction (KinomeScan (DiscoverX)) EUB0000655a PDGFRB; details: at 10 µM
[11] = target: T3, Mitogen-activated protein kinase kinase kinase 7 (Homo sapiens) (UniProt O43318); test: Selectivity interaction (KinomeScan (DiscoverX)) EUB0000092b MAP3K7; details: at 10 µM
T3 sequence (whole entry): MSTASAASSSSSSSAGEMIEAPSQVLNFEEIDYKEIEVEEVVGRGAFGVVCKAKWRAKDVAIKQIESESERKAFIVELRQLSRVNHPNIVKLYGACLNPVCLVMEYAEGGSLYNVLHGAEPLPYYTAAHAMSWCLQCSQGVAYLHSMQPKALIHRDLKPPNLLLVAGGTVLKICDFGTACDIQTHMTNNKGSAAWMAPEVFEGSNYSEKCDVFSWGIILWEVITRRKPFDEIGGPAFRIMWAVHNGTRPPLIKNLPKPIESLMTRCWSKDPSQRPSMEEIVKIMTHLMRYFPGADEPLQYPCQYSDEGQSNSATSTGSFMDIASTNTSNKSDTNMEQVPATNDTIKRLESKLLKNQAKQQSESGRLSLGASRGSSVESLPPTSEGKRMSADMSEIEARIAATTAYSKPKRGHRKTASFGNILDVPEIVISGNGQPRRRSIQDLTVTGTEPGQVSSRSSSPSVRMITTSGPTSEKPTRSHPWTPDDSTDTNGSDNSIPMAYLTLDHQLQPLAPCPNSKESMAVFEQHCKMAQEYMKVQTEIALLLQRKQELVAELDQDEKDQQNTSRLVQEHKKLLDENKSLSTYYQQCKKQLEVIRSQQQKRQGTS

Sequence of Serine/threonine-protein kinase PRP4 homolog (Homo sapiens) (Q13523 whole entry): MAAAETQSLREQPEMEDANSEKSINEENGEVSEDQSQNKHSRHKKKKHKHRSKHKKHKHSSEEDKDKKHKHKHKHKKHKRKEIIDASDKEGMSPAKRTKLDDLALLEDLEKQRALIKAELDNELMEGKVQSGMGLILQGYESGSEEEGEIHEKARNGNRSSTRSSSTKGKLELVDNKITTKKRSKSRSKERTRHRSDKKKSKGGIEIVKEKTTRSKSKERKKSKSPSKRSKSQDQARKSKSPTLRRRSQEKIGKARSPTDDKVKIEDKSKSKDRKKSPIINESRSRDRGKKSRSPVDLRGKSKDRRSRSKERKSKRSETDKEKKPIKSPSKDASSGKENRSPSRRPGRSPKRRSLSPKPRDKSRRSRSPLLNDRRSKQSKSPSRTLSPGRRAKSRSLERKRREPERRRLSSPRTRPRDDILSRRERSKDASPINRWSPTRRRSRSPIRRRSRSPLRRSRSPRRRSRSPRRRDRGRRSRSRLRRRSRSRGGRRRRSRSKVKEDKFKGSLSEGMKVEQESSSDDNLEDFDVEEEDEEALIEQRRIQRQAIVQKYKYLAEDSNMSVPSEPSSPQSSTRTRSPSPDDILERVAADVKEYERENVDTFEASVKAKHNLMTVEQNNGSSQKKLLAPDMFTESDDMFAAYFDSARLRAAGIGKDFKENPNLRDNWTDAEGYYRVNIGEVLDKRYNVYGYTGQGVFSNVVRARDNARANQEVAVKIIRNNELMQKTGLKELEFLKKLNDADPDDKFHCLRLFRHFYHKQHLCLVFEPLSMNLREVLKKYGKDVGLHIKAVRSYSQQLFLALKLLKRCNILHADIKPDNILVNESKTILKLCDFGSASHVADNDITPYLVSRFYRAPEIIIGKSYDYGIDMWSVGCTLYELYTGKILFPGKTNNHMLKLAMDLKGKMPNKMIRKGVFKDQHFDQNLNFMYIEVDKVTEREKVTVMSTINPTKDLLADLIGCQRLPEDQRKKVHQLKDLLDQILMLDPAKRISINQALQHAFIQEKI
Sequence of Serine/threonine-protein kinase Nek6 (Homo sapiens) (Q9HC98 whole entry): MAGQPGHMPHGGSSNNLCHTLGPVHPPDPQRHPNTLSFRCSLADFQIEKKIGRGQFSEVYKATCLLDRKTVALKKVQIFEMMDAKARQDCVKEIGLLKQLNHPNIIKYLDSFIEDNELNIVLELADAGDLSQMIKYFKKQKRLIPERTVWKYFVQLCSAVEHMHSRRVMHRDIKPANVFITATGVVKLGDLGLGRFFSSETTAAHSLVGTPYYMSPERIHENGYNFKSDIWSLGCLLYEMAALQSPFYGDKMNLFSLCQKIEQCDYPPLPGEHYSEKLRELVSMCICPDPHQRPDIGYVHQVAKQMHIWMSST
Sequence of Bromodomain-containing protein 2 (Homo sapiens) (P25440 whole entry, looked up): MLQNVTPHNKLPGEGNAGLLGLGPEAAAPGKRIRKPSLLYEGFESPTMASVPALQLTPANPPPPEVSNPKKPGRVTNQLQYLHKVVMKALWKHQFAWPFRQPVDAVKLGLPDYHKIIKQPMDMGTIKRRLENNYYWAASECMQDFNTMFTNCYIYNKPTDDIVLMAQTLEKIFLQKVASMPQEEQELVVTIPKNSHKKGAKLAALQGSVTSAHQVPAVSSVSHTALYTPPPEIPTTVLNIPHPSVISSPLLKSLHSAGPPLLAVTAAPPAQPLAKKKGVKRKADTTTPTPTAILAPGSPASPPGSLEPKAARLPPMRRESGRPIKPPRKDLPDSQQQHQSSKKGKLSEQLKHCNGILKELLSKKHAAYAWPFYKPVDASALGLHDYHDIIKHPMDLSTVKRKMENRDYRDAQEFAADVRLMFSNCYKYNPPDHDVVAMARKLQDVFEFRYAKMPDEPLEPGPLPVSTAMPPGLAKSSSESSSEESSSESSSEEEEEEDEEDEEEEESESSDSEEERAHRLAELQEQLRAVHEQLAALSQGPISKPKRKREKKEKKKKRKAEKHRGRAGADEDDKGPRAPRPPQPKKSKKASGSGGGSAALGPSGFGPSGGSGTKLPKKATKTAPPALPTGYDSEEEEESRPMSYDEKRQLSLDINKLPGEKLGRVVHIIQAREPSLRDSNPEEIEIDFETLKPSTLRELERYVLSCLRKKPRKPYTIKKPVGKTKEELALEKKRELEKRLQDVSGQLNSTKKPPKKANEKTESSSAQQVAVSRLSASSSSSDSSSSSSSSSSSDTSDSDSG
Sequence of Serine/threonine-protein kinase NLK (Q9UBE8 whole entry): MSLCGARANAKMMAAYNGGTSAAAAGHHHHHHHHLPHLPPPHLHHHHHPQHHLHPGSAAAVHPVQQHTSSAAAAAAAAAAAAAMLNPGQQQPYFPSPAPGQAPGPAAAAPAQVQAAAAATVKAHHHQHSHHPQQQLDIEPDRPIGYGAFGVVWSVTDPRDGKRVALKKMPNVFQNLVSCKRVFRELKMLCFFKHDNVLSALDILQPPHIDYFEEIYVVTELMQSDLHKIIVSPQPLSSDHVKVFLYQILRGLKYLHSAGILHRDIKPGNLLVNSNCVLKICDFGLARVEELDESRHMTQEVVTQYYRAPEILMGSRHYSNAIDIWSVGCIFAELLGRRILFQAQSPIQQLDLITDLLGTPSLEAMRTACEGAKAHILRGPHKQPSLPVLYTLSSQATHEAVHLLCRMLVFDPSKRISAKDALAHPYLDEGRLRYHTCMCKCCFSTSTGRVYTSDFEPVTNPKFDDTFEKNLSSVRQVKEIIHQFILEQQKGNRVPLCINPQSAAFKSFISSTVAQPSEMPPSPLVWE
Sequence of Receptor tyrosine-protein kinase erbB-3 (Homo sapiens) (P21860 whole entry): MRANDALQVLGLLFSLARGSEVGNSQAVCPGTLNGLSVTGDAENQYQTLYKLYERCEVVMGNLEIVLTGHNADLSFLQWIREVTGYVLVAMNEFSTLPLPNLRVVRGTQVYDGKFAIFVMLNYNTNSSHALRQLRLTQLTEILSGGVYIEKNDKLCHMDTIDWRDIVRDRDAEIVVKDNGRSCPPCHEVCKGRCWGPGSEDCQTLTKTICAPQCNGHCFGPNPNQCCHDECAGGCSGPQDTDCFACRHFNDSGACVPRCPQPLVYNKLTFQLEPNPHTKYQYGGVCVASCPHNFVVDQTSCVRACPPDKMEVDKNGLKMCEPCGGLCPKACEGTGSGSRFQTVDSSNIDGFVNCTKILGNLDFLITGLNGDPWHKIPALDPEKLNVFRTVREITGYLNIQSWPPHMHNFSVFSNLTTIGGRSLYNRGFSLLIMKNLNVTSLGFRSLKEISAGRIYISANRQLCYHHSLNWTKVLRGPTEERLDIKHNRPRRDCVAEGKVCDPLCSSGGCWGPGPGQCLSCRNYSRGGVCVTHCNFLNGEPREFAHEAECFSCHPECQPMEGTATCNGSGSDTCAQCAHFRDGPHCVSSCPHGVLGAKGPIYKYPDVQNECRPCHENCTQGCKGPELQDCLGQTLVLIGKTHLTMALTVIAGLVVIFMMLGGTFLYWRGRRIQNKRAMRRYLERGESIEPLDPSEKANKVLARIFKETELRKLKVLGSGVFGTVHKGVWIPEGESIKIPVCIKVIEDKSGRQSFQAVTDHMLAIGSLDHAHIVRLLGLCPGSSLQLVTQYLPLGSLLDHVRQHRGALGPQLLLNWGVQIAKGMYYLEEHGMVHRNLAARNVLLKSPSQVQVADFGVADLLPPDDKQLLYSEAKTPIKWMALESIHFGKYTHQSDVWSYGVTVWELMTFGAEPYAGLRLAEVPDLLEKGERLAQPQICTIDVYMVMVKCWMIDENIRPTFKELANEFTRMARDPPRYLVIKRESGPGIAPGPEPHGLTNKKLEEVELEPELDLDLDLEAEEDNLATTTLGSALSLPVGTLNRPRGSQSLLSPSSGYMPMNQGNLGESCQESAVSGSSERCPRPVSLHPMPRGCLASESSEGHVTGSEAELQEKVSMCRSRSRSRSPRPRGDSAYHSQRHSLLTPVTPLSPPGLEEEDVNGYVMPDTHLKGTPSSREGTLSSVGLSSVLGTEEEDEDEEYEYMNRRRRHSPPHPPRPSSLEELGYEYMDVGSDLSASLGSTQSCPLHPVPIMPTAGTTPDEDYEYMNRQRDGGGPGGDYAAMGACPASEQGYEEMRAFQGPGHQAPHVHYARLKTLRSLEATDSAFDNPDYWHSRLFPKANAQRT
Sequence of Platelet-derived growth factor receptor beta (P09619 whole entry): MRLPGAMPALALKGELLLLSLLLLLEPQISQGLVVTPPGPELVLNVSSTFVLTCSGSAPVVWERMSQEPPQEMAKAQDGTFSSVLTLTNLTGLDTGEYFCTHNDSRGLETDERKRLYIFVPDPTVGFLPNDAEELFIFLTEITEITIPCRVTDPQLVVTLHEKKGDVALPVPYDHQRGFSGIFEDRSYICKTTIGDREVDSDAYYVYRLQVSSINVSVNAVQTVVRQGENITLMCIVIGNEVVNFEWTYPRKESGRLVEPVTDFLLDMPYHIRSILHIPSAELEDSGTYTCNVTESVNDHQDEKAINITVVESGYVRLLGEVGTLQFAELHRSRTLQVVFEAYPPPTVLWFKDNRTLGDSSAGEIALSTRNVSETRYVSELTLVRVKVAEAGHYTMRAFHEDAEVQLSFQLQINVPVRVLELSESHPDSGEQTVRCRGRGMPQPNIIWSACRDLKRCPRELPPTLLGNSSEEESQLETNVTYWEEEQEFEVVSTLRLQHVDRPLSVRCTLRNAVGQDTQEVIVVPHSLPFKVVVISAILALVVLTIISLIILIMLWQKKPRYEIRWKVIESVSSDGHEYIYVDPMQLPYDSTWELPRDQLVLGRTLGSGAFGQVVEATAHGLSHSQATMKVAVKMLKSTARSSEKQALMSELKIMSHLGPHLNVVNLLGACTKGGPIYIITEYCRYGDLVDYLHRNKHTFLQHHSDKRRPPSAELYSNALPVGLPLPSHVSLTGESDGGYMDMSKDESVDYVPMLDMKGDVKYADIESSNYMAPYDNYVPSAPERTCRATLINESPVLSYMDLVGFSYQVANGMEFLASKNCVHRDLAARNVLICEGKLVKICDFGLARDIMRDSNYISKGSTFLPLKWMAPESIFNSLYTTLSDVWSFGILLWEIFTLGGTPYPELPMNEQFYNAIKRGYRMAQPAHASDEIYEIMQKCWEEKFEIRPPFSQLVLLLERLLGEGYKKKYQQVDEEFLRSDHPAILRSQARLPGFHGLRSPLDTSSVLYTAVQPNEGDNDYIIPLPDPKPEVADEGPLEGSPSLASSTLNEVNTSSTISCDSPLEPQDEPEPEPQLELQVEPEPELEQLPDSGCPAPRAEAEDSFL

SMILES: CN(C)CCCOc1ccc(-c2cc(NCCCn3cccn3)nc(S(C)(=O)=O)n2)cc1
- dTM [1]: < 2 K

SMILES: COc1cc(N(C)c2ccnc3ccc(C(F)(F)F)cc23)cc(OC)c1OC
- pKd [2]: 5.19
- % binding [3]: 100%

SMILES: Nc1cnc(N2CCc3cc(S(=O)(=O)Nc4c(F)cc(Cl)cc4F)cc(N4CCCC4=O)c32)nc1 [TP-020n]
- % of control [4]: 100%
- % of control [5]: 85%

SMILES: C=CC(=O)Nc1cccc(C(=O)Nc2ccc(Nc3cc(-c4[nH]c(SC)nc4C)ccn3)cc2)c1
- % of control ([6]; at 1 µM): 74%
- % of control ([6]; at 5 µM): 56%

SMILES: CCc1cc(Nc2nccc(-c3c(-c4ccc(OC)c(C(=O)Nc5c(F)cccc5F)c4)nc4ccccn34)n2)c(OC)cc1N1CCC(N2CCN(S(C)(=O)=O)CC2)CC1
- % of inhibition [7]: 53%

SMILES: O[C@H]1CC[C@H](Nc2ncc3nc(Nc4c(F)cc(F)cc4F)n([C@H]4CCOC4)c3n2)CC1
- % of control [8]: 100%

SMILES: CC[C@@H]1[C@H](F)C(=O)N[C@@H]1COc1nccc2cc(C(N)=O)c(OC)cc12 [ZIMLOVISERTIB]
- % of inhibition [9]: 21.9%

SMILES: CN(C)CCOc1ccc(-c2nc(-c3ccncc3)c(-c3ccc4c(c3)CC/C4=N\O)[nH]2)cc1
- % of control [10]: 63%

SMILES: CCC(=O)N1CCN(c2ccc(-n3c(=O)ccc4cnc5ccc(-c6cnc7ccccc7c6)cc5c43)cc2C(F)(F)F)CC1
- % of control [11]: 47%
